According to PubChem BioAssay (NCI):
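Method: 48-hour compound exposure of cells in 96-well plates, five concentrations, linear interpolation of endpoints. GI50 is the concentration that inhibits growth by half. Definition used: TGI = concentration required for complete inhibition of growth.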

Experiments:
Assay in all cases: DTP human tumour cell line panel, 48 h
COLO 205 colon = system: COLO 205 colon
HL-60(TB) leukemia = system: HL-60(TB) leukemia
HOP-92 NSCLC = system: HOP-92 NSCLC
IGROV1 ovarian = system: IGROV1 ovarian
MCF7 breast = system: MCF7 breast
NCI-H522 lung = system: NCI-H522 lung
SK-MEL-2 melanoma = system: SK-MEL-2 melanoma
SK-OV-3 ovarian = system: SK-OV-3 ovarian
T-47D breast = system: T-47D breast
UO-31 renal = system: UO-31 renal

Row | Compound | GI50 (COLO 205 colon) [µM] | TGI (COLO 205 colon) [µM] | GI50 (HL-60(TB) leukemia) [µM] | TGI (HL-60(TB) leukemia) [µM] | GI50 (HOP-92 NSCLC) [µM] | TGI (HOP-92 NSCLC) [µM] | GI50 (IGROV1 ovarian) [µM] | TGI (IGROV1 ovarian) [µM] | GI50 (MCF7 breast) [µM] | TGI (MCF7 breast) [µM] | GI50 (NCI-H522 lung) [µM] | TGI (NCI-H522 lung) [µM] | GI50 (SK-MEL-2 melanoma) [µM] | TGI (SK-MEL-2 melanoma) [µM] | GI50 (SK-OV-3 ovarian) [µM] | TGI (SK-OV-3 ovarian) [µM] | GI50 (T-47D breast) [µM] | TGI (T-47D breast) [µM] | GI50 (UO-31 renal) [µM] | TGI (UO-31 renal) [µM]
1 | Cc1cc2c(C(C)C)c(O)c(O)cc2c(O)c1-c1c(C)cc2c(C(C)C)c(O)c(O)cc2c1O | 3.84 | 15 | 9.07 | 34.1 | 3.13 | 17.4 | 10.1 | 23.6 | 11.4 | 29.5 | 10.1 | 24.5 | 17.7 | 33.9 | 23.9 | 73.5 | 19.1 | 45.7 | 14.9 | 29.1
2 | O=C1OCC2=C1C(c1cccc(Cl)c1)c1cc3c(cc1N2CCO)OCCO3 (configuration not stated) | 0.0971 | 0.651 | 0.0472 | 0.346 | – | – | 0.0792 | > 47.4 | 0.0379 | 97.6 | 0.0204 | 0.0608 | 0.0335 | 0.607 | 0.0548 | 1.96 | 0.0677 | > 100 | 0.0736 | > 69.4
3 | Cc1[nH]c2ccccc2c1CCCO | > 100 | > 100 | > 100 | > 100 | > 100 | > 100 | 82.9 | > 100 | > 100 | > 100 | > 100 | > 100 | > 100 | > 100 | > 100 | > 100 | > 100 | > 100 | 75.2 | > 100
4 | Cc1cc2c(cc1Cl)SC1=NN(C)C(C)N1S2(=O)=O (configuration not stated) | > 100 | > 100 | – | – | 19.3 | 80.9 | > 100 | > 100 | 36 | > 100 | 88.8 | > 100 | > 100 | > 100 | > 100 | > 100 | 95.8 | > 100 | > 100 | > 100
5 | CC1(C)C2CCC13C(=O)C1OC3(C2)C2C(=O)c3ccccc3C(=O)C12 (configuration not stated) | > 100 | > 100 | > 100 | > 100 | > 100 | > 100 | – | – | > 100 | > 100 | > 100 | > 100 | > 100 | > 100 | > 100 | > 100 | > 100 | > 100 | > 100 | > 100
6 | CC(C)(C)C(=O)OCC1C(=O)OCC1C(=O)N1Cc2cc3ccccc3nc2C1 (configuration not stated) | – | 2.41 | – | 3.13 | – | 3.69 | – | 29.1 | – | 14.6 | – | 2.2 | – | 22.1 | – | 29.8 | – | 7.63 | – | 7.99
7 | O=C(C/C(=N/O)C(=O)NC1=C(Cl)C(=O)c2ccccc2C1=O)CC(c1ccccc1)c1c(O)c2ccccc2oc1=O (configuration not stated) | – | 33.7 | – | – | – | > 100 | – | > 100 | – | 26.8 | – | 52.9 | – | 32.4 | – | > 100 | – | 38.1 | – | 44.5
8 | CC(C)CCCC(C)[C@H]1CCC2[C@@H]3CCC4Cc5nc6c(nc5C[C@]4(C)C3CC[C@@]21C)CC1CC[C@@H]2C(CC[C@@]3(C)C2CC[C@@H]3C(C)CCCC(C)C)[C@@]1(C)C6 (some centres not stated) | – | > 100 | – | > 100 | – | > 100 | – | > 100 | – | > 100 | – | – | – | > 100 | – | > 100 | – | > 100 | – | > 100
9 | COC1CC(O[C@H]2CC[C@@]3(C)[C@H](CC[C@@H]4[C@@H]3CC[C@]3(C)[C@@H](C5=CC(=O)OC5)[C@@H](OC(C)=O)C[C@]43O)C2)OC(C)C1O (some centres not stated) | < 0.01 | < 0.01 | < 0.01 | < 0.0331 | < 0.01 | < 0.01 | < 0.01 | < 0.01 | < 0.01 | < 0.0117 | < 0.01 | < 0.01 | < 0.01 | < 0.0105 | < 0.01 | < 0.01 | < 0.01 | < 0.01 | < 0.01 | < 0.01
10 | COc1ccc(C/C(C)=C(/c2ccc(OCCN3CCCCC3)cc2)c2ccc(OC(=O)NCc3ccccc3)cc2)cc1 | 0.437 | 0.9 | 0.391 | 0.895 | 0.258 | 0.575 | 0.424 | 0.859 | 0.0568 | 0.512 | 0.49 | 0.928 | 0.46 | 0.879 | 0.436 | 0.838 | 0.303 | 0.746 | 0.34 | 0.669
11 | O=C1NNC2(C(=O)N1)c1ccccc1-c1ccccc12 | – | > 10 | – | > 10 | – | > 10 | – | > 10 | – | > 10 | – | > 10 | – | – | – | > 10 | – | > 10 | – | > 10
12 | COc1cc(OC)c2nc(C)c3c(c2c1)SCC3 | – | > 100 | – | > 100 | – | – | – | 34.7 | – | 36.2 | – | 77.8 | – | 67.5 | – | 48.9 | – | 58 | – | 48.8
13 | C=C1C(O)C2C(=C(CC)C13CC3)C(=O)C(C)(C)C2OC (configuration not stated) | > 100 | > 100 | – | – | 48.4 | > 100 | 23.8 | > 100 | 42.4 | > 100 | 37.6 | > 100 | > 100 | > 100 | > 100 | > 100 | > 100 | > 100 | 81.5 | > 100
14 | O=C(/C=C/Sc1cc(C(F)(F)F)cc(C(F)(F)F)c1)c1ccc(Cl)cc1 | 2.1 | 6.6 | 2 | 11.4 | – | – | 2.38 | 6.55 | 13.6 | 35.8 | 3.42 | 12.4 | 31.1 | 63.1 | 15.1 | 31.3 | 1.82 | 4.09 | 2.85 | 6.05
15 | Cc1cc([N+](=O)[O-])c(NS(=O)(=O)c2cccc(C(=O)O)c2)cc1-c1cccnc1 | > 100 | > 100 | > 100 | > 100 | > 100 | > 100 | > 100 | > 100 | > 100 | > 100 | – | – | – | – | > 100 | > 100 | > 100 | > 100 | > 100 | > 100
